These results are taken from US8143257B2, “Substituted phenols as active agents inhibiting VEGF production” (PTC Therapeutics, Inc., priority 2004, dated 2012).

The subject of the experiment is hypoxia-inducible endogenous VEGF expression. In words: Assay to evaluate effect on hypoxia-inducible endogenous VEGF expression (VEGF ELISA, HeLa cells). The class given is cell-based. The note with it: read-out: ELISA EC50 (effective concentration required to lower the amount of VEGF translation by 50%). The procedure: Assay to Evaluate Effect on Hypoxia-Inducible Endogenous VEGF Expression
The ability of the compounds of the invention to modulate hypoxia-inducible endogenous VEGF expression is analyzed as follows. VEGF protein levels are monitored by an ELISA assay (R&D Systems). Briefly, HeLa cells are cultured for 24-48 hours under hypoxic conditions (1% O2, 5% CO2, balanced with nitrogen) in the presence or absence of a compound of the invention. The conditioned media is then assayed by ELISA, and the concentration of VEGF is calculated from the standard ELISA curve of each assay.
A dose-response analysis is performed using the ELISA assay and conditions described above. A series of, e.g., seven different concentrations are analyzed. In parallel, a dose-response cytotoxicity assay is performed using Cell Titer Glo (Promega) under the same conditions as the ELISA to ensure that the inhibition of VEGF expression is not due to the cytotoxicity. Dose-response curves are plotted using percentage inhibition versus concentration of the compound, and EC50 and CC50 values are generated for each compound with the maximal inhibition set as 100% and the minimal inhibition as 0%.
The most preferred compounds of the invention are those with μM values of 3 or less.
For orientation: ELISA stands for enzyme-linked immunosorbent assay.

[1] abbreviates: Homo sapiens, HeLa cells cultured 24-48 hours under hypoxic conditions (1% O2, 5% CO2), VEGF in conditioned media by ELISA.
The mark [2] stands for this setting: HeLa cells cultured 24-48 hours under hypoxic conditions (1% O2, 5% CO2), VEGF in conditioned media by ELISA.

Where two headings read alike, the source gives them in different places.

For `O=C(Oc1cc(Cl)c(Cl)cc1Cl)N1CCN(c2ccccc2)CC1` [4-Phenyl-piperazine-1-carboxylic acid 2,4,5-trichloro-phenyl ester], the EC50 under setting [1] was more than 30 µM. Consider `O=C(Oc1c(Cl)cc(Cl)cc1Cl)N1CCN(c2ccccc2)CC1` [4-Phenyl-piperazine-1-carboxylic acid 2,4,6-trichloro-phenyl ester], for which the EC50 under setting [1] came out at 5.78 µM. With `Cc1ccc2cc(OC(=O)N3CCN(c4ccccc4)CC3)ccc2n1` [4-Phenyl-piperazine-1-carboxylic acid 2-methyl-quionolin-6-yl ester], under setting [1], the EC50 is more than 30 µM. Still for that read-out and setting: the same measure for `O=C(Nc1ccc2ccccc2c1Br)N1CCN(c2ccccc2)CC1` [4-Phenyl-piperazine-1-carboxylic acid (1-bromo-naphthalen-2-yl)-amide]: more than 10 µM. Consider `O=C(Nc1ccc2ccccc2c1Cl)N1CCN(c2ccccc2)CC1` [4-Phenyl-piperazine-1-carboxylic acid (1-chloro-naphthalen-2-yl)-amide], for which the EC50 under setting [1] was more than 10 µM. Consider `O=C(Oc1cc2ccccc2cn1)N1CCN(c2ccccc2)CC1` [4-Phenyl-piperazine-1-carboxylic acid isoquinolin-3-yl ester], for which, under setting [1], the EC50 was more than 30 µM. `NC(=O)C1(N2CCCCC2)CCN(C(=O)Oc2ccc3ccccc3c2Br)CC1` [4′-Carbamoyl-[1,4′]bipiperidinyl-1′-carboxylic acid 1-bromo-naphthalen-2-yl ester]: the EC50 (Homo sapiens, HeLa) came out at 6.54 µM. Turning to `CCC(NC(=O)Oc1ccc2ccccc2c1)(C(F)(F)F)C(F)(F)F` [(1,1-Bis-trifluoromethyl-propyl)-carbamic acid naphthalen-2-yl ester], the EC50 under setting [1] was more than 30 µM. For `CCc1cccc(NC(=O)Oc2ccc3ccccc3c2)c1` [(3-Ethyl-phenyl)-carbamic acid naphthalen-2-yl ester], the EC50 under setting [1] was more than 30 µM. Turning to `CS(=O)(=O)Nc1c(OC(=O)Oc2ccc3ccccc3c2NS(C)(=O)=O)ccc2ccccc12` [Carbonic acid bis-(1-methanesulfonylamino-naphthalen-2-yl) ester], under setting [1], the EC50 worked out at 4.3 µM. As for `O=C(NC1CCCCC1)Oc1ccccc1Br` [Cyclohexyl-carbamic acid 2-bromo-phenyl ester], the EC50 under setting [1] was more than 30 µM.

`O=C(NCC1CCCCC1)Oc1ccc2cc(Br)ccc2c1Br` [Cyclohexylmethyl-carbamic acid 1,6-dibromo-naphthalen-2-yl ester]: under setting [1], the EC50 is more than 30 µM. Turning to `O=C(NCC1CCCCC1)Oc1ccc2ccccc2c1Br` [Cyclohexylmethyl-carbamic acid 1-bromo-naphthalen-2-yl ester], the EC50 under setting [1] was more than 30 µM. On the same count and under the same terms, the same measure for `CCN(CC)C(=O)Oc1ccc2ccccc2c1Br` [Diethyl-carbamic acid 1-bromo-naphthalen-2-yl ester]: 2 µM. Consider `CN(C)C(=O)Oc1ccc2ccccc2c1Br` [Dimethyl-carbamic acid 1-bromo-naphthalen-2-yl ester], for which the EC50 (Homo sapiens, HeLa) was 4 µM. Turning to `CN(C)C(=O)Oc1ccc2cc(Br)ccc2c1` [Dimethyl-carbamic acid 6-bromo-naphthalen-2-yl ester], the EC50 (Homo sapiens, HeLa) was more than 10 µM. With `CN(C(=O)Oc1ccc2cc(Br)ccc2c1)c1ccccc1` [Methyl-phenyl-carbamic acid 6-bromo-naphthalen-2-yl ester], under “Homo sapiens, HeLa”, the EC50 is more than 10 µM.

Take `CN(C(=O)Oc1ccc2ccccc2c1)c1ccccc1` [Methyl-phenyl-carbamic acid naphthalen-2-yl ester]: the EC50 (Homo sapiens, HeLa) is more than 10 µM. As to `O=C(Oc1ccc2cc(Br)ccc2c1Br)N1CCOCC1` [Morpholine-4-carboxylic acid 1,6-dibromo-naphthalen-2-yl ester], the EC50 under setting [1] is more than 30 µM. With `O=C(Oc1ccc2ccccc2c1Br)N1CCOCC1` [Morpholine-4-carboxylic acid 1-bromo-naphthalen-2-yl ester], the EC50 under setting [1] is 0.999 µM. Turning to `O=C(Oc1ccc2cc(Br)ccc2c1)N1CCOCC1` [Morpholine-4-carboxylic acid 6-bromo-naphthalen-2-yl ester], the EC50 under setting [1] was more than 10 µM.

For `CS(=O)(=O)Nc1c(O)ccc2ccccc12` [N-(2-Hydroxy-naphthalen-1-yl)-methanesulfonamide], the EC50 under setting [1] is more than 5 µM.

`O=C(Oc1ccc2cc(Br)ccc2c1Br)N1CCCCC1` [Piperidine-1-carboxylic acid 1,6-dibromo-naphthalen-2-yl ester]: the EC50 under setting [1] was more than 30 µM. Same read-out and setting: next, `O=C(Oc1ccc2ccccc2c1Br)N1CCCCC1` [Piperidine-1-carboxylic acid 1-bromo-naphthalen-2-yl ester]: 0.27 µM; `CS(=O)(=O)Nc1c(OC(=O)N2CCCCC2)ccc2ccccc12` [Piperidine-1-carboxylic acid 1-methanesulfonylamino-naphthalen-2-yl ester]: more than 5 µM; `O=C(Oc1cc(Cl)c(Cl)cc1Cl)N1CCCCC1` [Piperidine-1-carboxylic acid 2,4,5-trichloro-phenyl ester]: 18.2 µM. Take `O=C(Oc1c(Cl)cc(Cl)cc1Cl)N1CCCCC1` [Piperidine-1-carboxylic acid 2,4,6-trichloro-phenyl ester]: under setting [1], the EC50 was more than 30 µM. In the case of `O=C(Oc1ccccc1Br)N1CCCCC1` [Piperidine-1-carboxylic acid 2-bromo-phenyl ester], the EC50 under setting [1] is more than 30 µM.

For the compound `Cc1ccc2cc(OC(=O)N3CCCCC3)ccc2n1` [Piperidine-1-carboxylic acid 2-methyl-quinolin-6-yl ester], under setting [1], the EC50 was more than 30 µM. Consider `O=C(Oc1ncc2ccccc2c1Cl)N1CCCCC1` [Piperidine-1-carboxylic acid 4-chloro-isoquinolin-3-yl ester], for which, under setting [1], the EC50 came out at 2.22 µM. Turning to `O=C(Oc1ccc2cc(Br)ccc2c1)N1CCCCC1` [Piperidine-1-carboxylic acid 6-bromo-naphthalen-2-yl ester], the EC50 under setting [1] was more than 10 µM.

Regarding `O=C(Nc1ccc2ccccc2c1Br)N1CCCCC1` [Piperidine-1-carboxylic acid (1-bromo-naphthalen-2-yl)-amide], under setting [1], the EC50 is more than 10 µM. For `O=C(Nc1ccc2ccccc2c1Cl)N1CCCCC1` [Piperidine-1-carboxylic acid (1-chloro-naphthalen-2-yl)-amide], under setting [1], the EC50 was more than 10 µM. On to `O=C(Oc1cc2ccccc2cn1)N1CCCCC1` [Piperidine-1-carboxylic acid isoquinolin-3-yl ester], for which the EC50 under setting [1] is more than 30 µM.

Consider `O=C(Oc1ccc2ccccc2c1)N1CCCCC1` [Piperidine-1-carboxylic acid naphthalen-2-yl ester], for which, under setting [1], the EC50 was more than 10 µM. For `O=C(Nc1ccc2ccccc2c1)N1CCCCC1` [Piperidine-1-carboxylic acid naphthalen-2-ylamide], under setting [1], the EC50 was more than 10 µM. On the same count and under the same terms, the same measure for `CC(=O)c1c(OC(=O)N2CCCC2)ccc2ccccc12` [Pyrrolidine-1-carboxylic acid 1-acetyl-naphthalen-2-yl ester]: more than 30 µM; for `O=C(Oc1cc(Cl)c(Cl)cc1Cl)N1CCCC1` [Pyrrolidine-1-carboxylic acid 2,4,5-trichloro-phenyl ester]: more than 30 µM; for `O=C(Oc1c(Cl)cc(Cl)cc1Cl)N1CCCC1` [Pyrrolidine-1-carboxylic acid 2,4,6-trichloro-phenyl ester]: 23 µM. On the same count and under the same terms, the same measure for `Cc1ccc(OC(=O)N2CCCC2)c(Br)c1` [Pyrrolidine-1-carboxylic acid 2-bromo-4-methyl-phenyl ester]: more than 30 µM. `O=C(Oc1ccccc1Br)N1CCCC1` [Pyrrolidine-1-carboxylic acid 2-bromo-phenyl ester]: the EC50 under setting [2] is more than 30 µM. For the compound `Cc1ccc2cc(OC(=O)N3CCCC3)ccc2n1` [Pyrrolidine-1-carboxylic acid 2-methyl-quinolin-6-yl ester], under setting [2], the EC50 is more than 30 µM. For `O=C(Oc1cc2ccccc2cn1)N1CCCC1` [Pyrrolidine-1-carboxylic acid isoquinolin-3-yl ester], under setting [1], the EC50 is more than 30 µM.
